Test results taken from patent publication US20190083460A1, “ANALGESIC COMPOUNDS” (ZENO ROYALTIES & MILESTONES, LLC, priority 2016, published 2019).

Tested on: male ICR mice
Assay: Formalin Paw Test
Type: in vivo
Conditions: 30 mg/kg intraperitoneal; for Early Phase: early/acute phase (0-10 minutes) after 2% formalin into hind paw; for Late Phase: late/tonic phase (10-35 minutes) after 2% formalin into hind paw
Description: One test compound or the vehicle was administered to each mouse in each test group (8 mice per group). Non-fasted male ICR mice weighing 23±3 g were used. Test compounds were administered at a concentration of 3 mg/kg, 10 mg/kg, 15 mg/kg, 30 mg/kg, 60 mg/kg, 100 mg/kg, 200 mg/kg or 300 mg/kg; morphine was administered at a concentration of 5 mg/kg; and acetaminophen was administered at a concentration of 200 mg/kg. The control group received the vehicle (5% DMSO/40% PEG400/20% HPbCD/Saline). After 30 or 60 minutes, a 2% formalin solution (0.02 mL) was injected into one hind paw (sub-plantar) of each mouse. Responses were measured every 5 minutes after the formalin injection for 35 minutes.
The results in Table A are for intraperitoneal administration. In Table A, ‘A’ designates <70 licks/sec, ‘B’ designates ≥70 licks/sec and <165 licks/sec, and ‘C’ designates ≥165 licks/sec.

## NC1CC2(COC2)C1 [Compound I-1]
  Early Phase: B (‘B’ designates ≥70 licks/sec and <165 licks/sec)
  Late Phase: B (‘B’ designates ≥70 licks/sec and <165 licks/sec)

## NC1CCCOCC1 (stereo not shown) [Compound I-4]
  Early Phase: B (‘B’ designates ≥70 licks/sec and <165 licks/sec)
  Late Phase: C (‘C’ designates ≥165 licks/sec)
